In publication PMC10222548, “Semisynthesis, Biological Evaluation and Molecular Docking Studies of Barbatic Acid Derivatives as Novel Diuretic Candidates” (Molecules, 2023):

Experiments:
[1] = test system: MDCK cells; experiment: MTT cytotoxicity assay on MDCK cells; format: cell-based, canine; conditions: Canis lupus familiaris, 100 μmol/L, 24 h, mean ± SD of three replicates, read-out: Growth Inhibition Rate (%)
Experimental: First, we used the MTT method to perform cytotoxicity of barbatic acid derivatives (1, 6a–6p′) on MDCK cells at the concentration of 100 μmol/L, and the results are shown in Table 1.
The MTT assay was used to evaluate the cytotoxicity of the target compounds on DMCK cells. Logarithmic-growth-phase DMCK cells were seeded in a 96-well plate (10^4 cells/well) and incubated in a cell culture incubator for 24 h. The culture medium was then removed and replaced with a drug-containing medium for the treatment groups (1, 6a–6p′, 100 μmol/L), normal saline for the control group, or hydrochlorothiazide (100 μmol/L) for the positive control group. Each well was treated with 100 µL of the respective solution and incubated for an additional 24 h. The culture medium was then removed and replaced with a DMEM solution containing 20 µL of MTT (5 mg/mL). After incubating for 4 h, the liquid in each well was removed and replaced with 150 µL of DMSO, which was shaken for 10 min to ensure thorough mixing. The absorbance at 490 nm was measured to determine the optical density (OD) of each well. Cell growth inhibition rate (%) = (ODBlank − ODExperimental)/ODBlank × 100%.

[2] = test system: Na^+ transport, MDCK cells; experiment: In vitro diuretic activity: Na^+ transport inhibition, Transwell chamber seeded with MDCK cells; format: cell-based, canine; conditions: Canis lupus familiaris, MDCK, 100 μmol/L, MDCK cells in Transwell; mean ± SD of three replicates; negative = promotion; read-out: Transport Inhibition Rate (%) Na^+
Excerpt: (§1) The traditional methods for screening diuretic drugs are mostly in vivo experiments with mice, which have a long experimental cycle and are not suitable for screening massive compounds. As we know, the generation and excretion of urine involve two processes: glomerular filtration and tubular reabsorption. Reabsorption refers to the process in which the renal tubular epithelial cells transport water and certain solutes from the tubular fluid (urine) partially or entirely back into the bloodstream. Then, 99% of the water in the original urine filtered by the glomerulus is reabsorbed, and the transport of Na^+ and Cl^− plays an important role in this process. Thiazide and furosemide diuretics exert their diuretic effects by inhibiting the transport of Na^+ and Cl^−, which affects the tubular reabsorption of the original urine. Based on this principle, we established a new type of cell screening model for diuretic active drugs. Madin–Darby canine kidney (MDCK) cells were inoculated into a Transwell chamber to simulate the renal tubules. This cell model could transport and absorb external NaCl, simulating the reabsorption phenomenon. […] The effectiveness of this model was confirmed by the validation of hydrochlorothiazide, which is a commercially available diuretic drug and could inhibit the transport of Na^+ and Cl^− in renal tubules.
(§2) Generally, the transport of Na^+ and Cl^− plays an important role in glomerular filtration and tubular reabsorption. […] For example, inhibition rates of transport of 6a and 6c were over 30%, and had better inhibitory ability than barbatic acid. […] When ethyl, propyl, and benzyl were substituted on R^1, the introduction of any group could not enhance the inhibitory activity of barbatic acid, such as 6h–u and 6j′–6p′.
(§3) Log-phase MDCK cells were seeded in the upper chambers of Transwell plates (4 × 10^4 cells/well), and 800 µL of complete culture medium was added to the lower chambers. After 24 h of incubation at 37 °C, the electrical resistance of the upper chamber cells was measured one by one (R = (Rcell − Rblank) × 0.04π). When the electrical resistance of the upper chamber cells reached ≥300 Ω cm^2, the upper chamber medium was removed and replaced with the drug solution. The blank group (given normal saline), the experimental group (1, 6a–6p′, 100 μmol/L), and the hydrochlorothiazide group (100 μmol/L) were set, and each well was treated with 100 µL of the corresponding solution. The cells were then further incubated for 24 h. After that, the upper and lower chamber fluids were removed, and 200 µL of NaCl solution (15 mg/mL) was added to the upper chamber, while 800 µL of DMEM was added to the lower chamber for continued incubation. At 0.5, 1, 2, and 3 h, 50 µL of the lower chamber fluid was taken and the OD values were measured using Na^+ and Cl^− detection kits. The transport inhibition rate (%) was calculated as follows: transport inhibition rate (%) = (ODblank − ODexperimental)/ODblank × 100%.

[3] = test system: Cl^− transport, MDCK cells; experiment: In vitro diuretic activity: Cl^− transport inhibition, Transwell chamber seeded with MDCK cells; format: cell-based, canine; conditions: Canis lupus familiaris; 100 μmol/L, MDCK cells in Transwell; mean ± SD of three replicates; negative = promotion; read-out: Transport Inhibition Rate (%) Cl^−
Excerpt: as §1, §2, §3

[4] = test system: Ca^2+ transport, MDCK cells; experiment: In vitro litholytic activity: Ca^2+ transport inhibition, Transwell chamber with MDCK cells; format: cell-based, canine; conditions: Canis lupus familiaris, 100 μmol/L, mean ± SD of three replicates, read-out: Transport Inhibition Rate (%) Ca^2+
Experimental: (§4) On the other hand, all compounds had little inhibitory effect on Ca^2+ transport. The structure–activity relationships (SARs) were also observed. […] On the other hand, the introduction of the benzyl group to the R^1 or R^2 of barbatic acid could not lead to more promising compounds, such as 6a, 6n, 6u, 6b′, and 6i′–p′.
(§5) Logarithmic-phase DMCK cells were inoculated in the upper chamber of a Transwell plate (4 × 10^4 cells/well). Then, 800 µL of complete culture medium was added to the lower chamber, and the cells were incubated for 24 h until they adhered to the wall. The resistance value of the upper chamber cells was measured one by one at 37 °C (R = (Rcell − Rblank) × 0.04π). When the resistance value of the upper chamber cells was ≥300 Ω cm^2, the upper chamber liquid was discarded for drug administration. A control group (given physiological saline) and an experimental group (1, 6a–6p′, 100 μmol/L) were set up, and 100 µL of each drug was administered per well, followed by continued incubation for 24 h. Then, the upper and lower chamber liquids were discarded, and 200 µL of CaC2O4 (30 mmol/L) solution was added to the upper chamber, and 800 µL of PBS solution was added to the lower chamber for continued incubation. At 0.5, 1, 2, and 3 h, 50 µL of the lower chamber liquid was taken and then tested using the Ca^2+ and C2O4^2− detection kits and the following detection methods. The transport inhibition rate (%) = (ODblank − ODexperimental)/ODblank × 100%.

[5] = test system: C2O4^2− transport, MDCK cells; experiment: In vitro litholytic activity: C2O4^2− transport inhibition, Transwell chamber with MDCK cells; format: cell-based, canine; conditions: for inhibition at 100 µM: Canis lupus familiaris, 100 μmol/L, MDCK cells in Transwell, mean ± SD of three replicates, read-out: Transport Inhibition Rate (%) C2O4^2−; for C2O4^2− transport inhibition activity at different time periods: 1, 2, and 3 h (Figure 4)
Experimental: as §4, §5

SMILES | inhibition at 100 µM [1] | inhibition at 100 µM [2] | inhibition at 100 µM [3] | inhibition at 100 µM [4] | inhibition at 100 µM [5] | melting point | C2O4^2− transport inhibition activity at different time periods [5]
CCOc1cc(C)c(C(=O)Oc2cc(C)c(C(=O)OC)c(O)c2C)c(O)c1C [Compound 6h, 3-hydroxy-4-(methoxycarbonyl)-2,5-dimethylphenyl 4-ethoxy-2-hydroxy-3,6-dimethylbenzoate] | < 0% | -7.67 ± 1% | 2.19 ± 0.55% | -3.85 ± 0.19% | -4.23 ± 4.77% | 152 to 155 °C | 
CCOC(=O)c1c(C)cc(OC(=O)c2c(C)cc(OCC)c(C)c2O)c(C)c1O [Compound 6i, 4-(ethoxycarbonyl)-3-hydroxy-2,5-dimethylphenyl 4-ethoxy-2-hydroxy-3,6-dimethylbenzoate] | < 0% | 5.2 ± 3.6% | -2.13 ± 1.9% | 1.71 ± 0.13% | 54 ± 10.4% | 187 to 190 °C | 
CCCOC(=O)c1c(C)cc(OC(=O)c2c(C)cc(OCC)c(C)c2O)c(C)c1O [Compound 6j, 3-hydroxy-2,5-dimethyl-4-(propoxycarbonyl)phenyl 4-ethoxy-2-hydroxy-3,6-dimethylbenzoate] | < 0% | 5.2 ± 3.6% | 5.75 ± 1.1% | 4.45 ± 0.29% | 42.3 ± 1.66% | 154 to 157 °C | very strong and continual inhibitory activities
CCOc1cc(C)c(C(=O)Oc2cc(C)c(C(=O)OC(C)C)c(O)c2C)c(O)c1C [Compound 6k, 3-hydroxy-4-(isopropoxycarbonyl)-2,5-dimethylphenyl 4-ethoxy-2-hydroxy-3,6-dimethylbenzoate] | < 0% | -62.5 ± 1.95% | -7.1 ± 1% | 1.2 ± 0.13% | -5.12 ± 1.75% | 125 to 128 °C | 
CCOc1cc(C)c(C(=O)Oc2cc(C)c(C(=O)OCC#N)c(O)c2C)c(O)c1C [Compound 6m, 4-((cyanomethoxy)carbonyl)-3-hydroxy-2,5-dimethylphenyl 4-ethoxy-2-hydroxy-3,6-dimethylbenzoate] | < 0% | -2.99 ± 6% | -29.3 ± 1.75% | 2.57 ± 0.1% | 61 ± 2.75% | 160 to 163 °C | very strong and continual inhibitory activities
CCOc1cc(C)c(C(=O)Oc2cc(C)c(C(=O)OCc3ccccc3)c(O)c2C)c(O)c1C [Compound 6n, benzyl 4-(4-ethoxy-2-hydroxy-3,6-dimethylbenzoyloxy)-2-hydroxy-3,6-dimethylbenzoate] | 0.36 ± 0.8% | -3.98 ± 0.15% | -4.47 ± 0.2% | -2.13 ± 0.3% | 0.11 ± 0.7% | 129 to 131 °C | 
CCCOc1cc(C)c(C(=O)Oc2cc(C)c(C(=O)OC)c(O)c2C)c(O)c1C [Compound 6o, 3-hydroxy-4-(methoxycarbonyl)-2,5-dimethylphenyl 2-hydroxy-3,6-dimethyl-4-propoxybenzoate] | < 0% | -2.68 ± 0.45% | -2.8 ± 1.2% | 4.43 ± 0.13% | 5.6 ± 3.85% | 110 to 113 °C | 
CCCOc1cc(C)c(C(=O)Oc2cc(C)c(C(=O)OCC)c(O)c2C)c(O)c1C [Compound 6p, 4-(ethoxycarbonyl)-3-hydroxy-2,5-dimethylphenyl 2-hydroxy-3,6-dimethyl-4-propoxybenzoate] | < 0% | -12.2 ± 0.45% | -18.38 ± 0.15% | 4.79 ± 0.46% | 4.29 ± 0.24% | 160 to 163 °C | 
CCCOC(=O)c1c(C)cc(OC(=O)c2c(C)cc(OCCC)c(C)c2O)c(C)c1O [Compound 6q, 3-hydroxy-2,5-dimethyl-4-(propoxycarbonyl)phenyl 2-hydroxy-3,6-dimethyl-4-propoxybenzoate] | < 0% | 9.39 ± 0.25% | 11.6 ± 2.2% | 4.61 ± 0.32% | -26 ± 4.17% | 126 to 130 °C | 
C=CCOC(=O)c1c(C)cc(OC(=O)c2c(C)cc(OCCC)c(C)c2O)c(C)c1O [Compound 6r, allyl 2-hydroxy-4-(2-hydroxy-3,6-dimethyl-4-propoxybenzoyloxy)-3,6-dimethylbenzoate] | < 0% | 1.14 ± 1.25% | -10.3 ± 1.4% | 5.85 ± 0.36% | 9.67 ± 4.6% | 98 to 111 °C | 
CCCOc1cc(C)c(C(=O)Oc2cc(C)c(C(=O)OCC#N)c(O)c2C)c(O)c1C [Compound 6s, 4-((cyanomethoxy)carbonyl)-3-hydroxy-2,5-dimethylphenyl 2-hydroxy-3,6-dimethyl-4-propoxybenzoate] | < 0% | -27.9 ± 0.5% | -6.21 ± 0.3% | -1.74 ± 0.12% | 15.7 ± 1.13% | 135 to 138 °C | 
CCCOc1cc(C)c(C(=O)Oc2cc(C)c(C(=O)OC(C)C)c(O)c2C)c(O)c1C [Compound 6t, 3-hydroxy-4-(isopropoxycarbonyl)-2,5-dimethylphenyl 2-hydroxy-3,6-dimethyl-4-propoxybenzoate] | 1.42% | -37.6 ± 0.55% | -44.1 ± 3.5% | -1.74 ± 0.29% | 11.9 ± 5.83% | 112 to 115 °C | 
CCCOc1cc(C)c(C(=O)Oc2cc(C)c(C(=O)OCc3ccccc3)c(O)c2C)c(O)c1C [Compound 6u, benzyl 2-hydroxy-4-(2-hydroxy-3,6-dimethyl-4-propoxybenzoyloxy)-3,6-dimethylbenzoate] | < 0% | 6.31 ± 2.35% | -15.9 ± 0.55% | 0.77 ± 0.09% | 22.3 ± 5.04% | 111 to 114 °C | 
